Measured values taken from patent US8580802B2, “Pyrrolo[2,3-D]pyrimidines as inhibitors of Janus kinases” (Vertex Pharmaceuticals Incorporated, priority 2005, dated 2013).

Legend:
[1] = target: JAK2 (Homo sapiens, UniProt O60674); assay: JAK2 Inhibition Assay; type: biochemical; conditions: JAK-2 enzyme, 15 μM poly(Glu)4Tyr, 12 μM ATP
Method: (§1) Compounds were screened for their ability to inhibit JAK3 using the assay shown below. Reactions were carried out in a kinase buffer containing 100 mM HEPES (pH 7.4), 1 mM DTT, 10 mM MgCl2, 25 mM NaCl, and 0.01% BSA. Substrate concentrations in the assay were 5 μM ATP (200 uCi/μmole ATP) and 1 μM poly(Glu)4Tyr. Reactions were carried out 25° C. and 1 nM JAK3.
(§2) To each well of a 96 well polycarbonate plate was added 1.5 μl of a candidate JAK3 inhibitor along with 50 μl of kinase buffer containing 2 μM poly(Glu)4Tyr and 10 μM ATP. This was then mixed and 50 μl of kinase buffer containing 2 nM JAK3 enzyme was added to start the reaction. After 20 minutes at room temperature (25° C.), the reaction was stopped with 50 μl of 20% trichloroacetic acid (TCA) that also contained 0.4 mM ATP. The entire contents of each well were then transferred to a 96 well glass fiber filter plate using a TomTek Cell Harvester. After washing, 60 μl of scintillation fluid was added and ^33P incorporation detected on a Perkin Elmer TopCount.
The assays were as described above in Example 36 except that JAK-2 enzyme was used, the final poly(Glu)4Tyr concentration was 15 μM, and final ATP concentration was 12 μM.

[2] = target: T1, JAK3 (Homo sapiens, UniProt P52333); assay: JAK3 Inhibition Assay; type: biochemical; conditions: 1 nM JAK3, 1 μM poly(Glu)4Tyr, 5 μM ATP, 25° C.; read-out: enzyme inhibition data (Ki) JAK3
T1 sequence (P52333 1-1124): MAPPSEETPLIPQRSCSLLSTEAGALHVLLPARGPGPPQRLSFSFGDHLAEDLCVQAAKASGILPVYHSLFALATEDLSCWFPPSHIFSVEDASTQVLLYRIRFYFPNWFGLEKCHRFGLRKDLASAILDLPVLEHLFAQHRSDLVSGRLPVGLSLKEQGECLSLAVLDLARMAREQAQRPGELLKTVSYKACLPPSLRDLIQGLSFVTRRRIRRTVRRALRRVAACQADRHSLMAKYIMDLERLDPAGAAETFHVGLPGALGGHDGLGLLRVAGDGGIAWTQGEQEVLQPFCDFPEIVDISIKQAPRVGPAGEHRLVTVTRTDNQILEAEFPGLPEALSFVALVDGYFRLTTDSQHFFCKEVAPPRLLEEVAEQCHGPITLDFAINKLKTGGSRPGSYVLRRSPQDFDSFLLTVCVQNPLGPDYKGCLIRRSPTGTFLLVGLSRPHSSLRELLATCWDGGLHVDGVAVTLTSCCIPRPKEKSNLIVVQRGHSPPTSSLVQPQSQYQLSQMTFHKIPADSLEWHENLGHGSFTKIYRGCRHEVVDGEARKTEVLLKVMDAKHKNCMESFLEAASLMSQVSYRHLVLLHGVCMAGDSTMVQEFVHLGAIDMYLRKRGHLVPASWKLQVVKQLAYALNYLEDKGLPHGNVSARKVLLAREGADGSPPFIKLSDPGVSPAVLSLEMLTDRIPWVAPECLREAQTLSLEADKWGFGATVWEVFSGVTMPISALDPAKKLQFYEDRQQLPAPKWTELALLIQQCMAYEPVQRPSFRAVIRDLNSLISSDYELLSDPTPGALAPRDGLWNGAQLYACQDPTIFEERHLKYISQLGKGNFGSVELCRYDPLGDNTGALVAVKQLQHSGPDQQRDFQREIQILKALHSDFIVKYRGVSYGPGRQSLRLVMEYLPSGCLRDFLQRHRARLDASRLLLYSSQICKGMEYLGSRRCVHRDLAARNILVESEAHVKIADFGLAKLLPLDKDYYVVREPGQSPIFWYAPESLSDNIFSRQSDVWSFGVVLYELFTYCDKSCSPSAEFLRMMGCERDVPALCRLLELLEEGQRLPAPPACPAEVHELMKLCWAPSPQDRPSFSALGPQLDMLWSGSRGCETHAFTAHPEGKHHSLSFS
Method: as §1, §2

Sequence of JAK2 (O60674 whole entry): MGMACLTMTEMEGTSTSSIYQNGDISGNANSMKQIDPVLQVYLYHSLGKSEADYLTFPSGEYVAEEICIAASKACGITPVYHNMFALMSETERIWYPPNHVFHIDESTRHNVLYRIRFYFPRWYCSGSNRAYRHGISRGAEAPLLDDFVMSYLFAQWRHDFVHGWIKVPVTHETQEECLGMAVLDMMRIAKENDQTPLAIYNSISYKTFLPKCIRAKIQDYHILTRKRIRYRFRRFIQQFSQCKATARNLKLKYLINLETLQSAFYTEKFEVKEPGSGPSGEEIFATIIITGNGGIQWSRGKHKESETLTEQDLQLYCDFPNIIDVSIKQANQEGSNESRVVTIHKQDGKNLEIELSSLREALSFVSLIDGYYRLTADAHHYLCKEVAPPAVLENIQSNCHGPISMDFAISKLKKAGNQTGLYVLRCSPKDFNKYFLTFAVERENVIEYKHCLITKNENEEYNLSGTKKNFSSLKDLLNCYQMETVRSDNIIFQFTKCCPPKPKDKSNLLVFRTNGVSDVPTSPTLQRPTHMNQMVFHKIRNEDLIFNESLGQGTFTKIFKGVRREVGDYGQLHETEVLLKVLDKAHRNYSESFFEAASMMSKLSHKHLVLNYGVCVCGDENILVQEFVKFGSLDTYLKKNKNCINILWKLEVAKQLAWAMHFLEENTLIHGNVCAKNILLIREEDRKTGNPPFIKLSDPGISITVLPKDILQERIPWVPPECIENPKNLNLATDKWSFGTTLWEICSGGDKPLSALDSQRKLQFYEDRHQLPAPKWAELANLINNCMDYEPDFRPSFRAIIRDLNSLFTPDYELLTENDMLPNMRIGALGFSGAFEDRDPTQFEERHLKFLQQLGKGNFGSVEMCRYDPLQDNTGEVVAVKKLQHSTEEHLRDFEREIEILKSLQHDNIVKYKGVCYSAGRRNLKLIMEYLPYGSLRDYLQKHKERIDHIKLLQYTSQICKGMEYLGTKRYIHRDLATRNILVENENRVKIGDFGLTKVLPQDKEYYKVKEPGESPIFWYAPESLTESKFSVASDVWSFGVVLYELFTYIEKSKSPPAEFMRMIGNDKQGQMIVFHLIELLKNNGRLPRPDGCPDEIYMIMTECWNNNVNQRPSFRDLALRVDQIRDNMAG

| Ki [1] [nM] | Ki [2] [nM] | Compound |
| --- | --- | --- |
| < 500 | < 500 | O=C(CCn1ccc2cnc(-c3c[nH]c4ncncc34)nc21)NCC(F)(F)F [Compound 111] |
| < 500 | < 500 | CC(C)(Nc1nc(-c2c[nH]c3ncncc23)ncc1F)C(=O)NCC(F)(F)F [Compound 56, 2-(5-fluoro-2-(7H-pyrrolo[2,3-d]pyrimidin-5-yl)pyrimidin-4-ylamino)-N-(2,2,2-trifluoroethyl)-2-methylpropanamide] |
| < 500 | < 500 | C[C@H](Nc1cccc(-c2c[nH]c3ncncc23)n1)C(=O)NCC(F)(F)F [Compound 4, (S)-2-(6-(7H-pyrrolo[2,3-d]pyrimidin-5-yl)pyridin-2-ylamino)-N-(2,2,2-trifluoroethyl)propanamide] |
| < 500 | < 500 | O=C(NCC(F)(F)F)C1(Nc2ccnc(-c3c[nH]c4ncncc34)n2)CCC1 [Compound 64] |
| > 5000 | 500 to 5000 | C[C@H](Nc1nc(-c2c[nH]c3ncncc23)cc(N2CCOCC2)n1)C(=O)NCC(F)(F)F [Compound 35] |
| < 500 | < 500 | CC[C@@H](C(=O)NCC(F)(F)F)n1ccc2cnc(-c3c[nH]c4ncncc34)nc21 [Compound 112] |
| > 5000 | > 5000 | O=C(NCC(F)(F)F)C1CN(c2nc(-c3c[nH]c4ncncc34)ncc2F)C1 [Compound 95] |
| > 5000 | 500 to 5000 | CCOC(=O)c1cc(N[C@@H](C)C(=O)NCC(F)(F)F)nc(-c2c[nH]c3ncncc23)n1 [Compound 2] |
| < 500 | < 500 | O=C(NCC(F)(F)F)[C@H]1CCCCN1c1cnc(-c2c[nH]c3ncncc23)nc1 [Compound 54] |
| < 500 | < 500 | CC[C@@H](C(=O)NCC(F)(F)F)n1cnc2cnc(-c3c[nH]c4ncncc34)nc21 [Compound 113] |
| < 500 | < 500 | O=C(NCC(F)(F)F)C1(Nc2nc(-c3c[nH]c4ncncc34)ncc2F)CCCCC1 [Compound 62] |
| 500 to 5000 | < 500 | C[C@H](Nc1cc(-c2nnn[nH]2)cc(-c2c[nH]c3ncncc23)n1)C(=O)NCC(F)(F)F [Compound 20, (S)-2-(6-(7H-pyrrolo[2,3-d]pyrimidin-5-yl)-4-(1H-tetrazol-5-yl)pyridin-2-ylamino)-N-(2,2,2-trifluoroethyl)propanamide] |
| < 500 | < 500 | C[C@H](Nc1nc(-c2c[nH]c3ncncc23)ncc1F)c1ccc(F)cc1 [Compound 59] |
| 500 to 5000 | < 500 | C[C@H](Nc1cc(-c2ccccc2)nc(-c2c[nH]c3ncncc23)n1)C(=O)NCC(F)(F)F [Compound 18, (S)-2-(6-phenyl-2-(7H-pyrrolo[2,3-d]pyrimidin-5-yl)pyrimidin-4-ylamino)-N-(2,2,2-trifluoroethyl)propanamide] |
| > 5000 | < 500 | C[C@H](Nc1cc(C(=O)O)nc(-c2c[nH]c3ncncc23)n1)C(=O)NCC(F)(F)F [Compound 3, 6-((S)-1-(2,2,2-trifluoroethylcarbamoyl)ethylamino)-2-(7H-pyrrolo[2,3-d]pyrimidin-5-yl)pyrimidine-4-carboxylic acid] |
| 500 to 5000 | < 500 | C[C@H](Nc1cc(C#N)cc(-c2c[nH]c3ncncc23)n1)C(=O)NCC(F)(F)F [Compound 19, (S)-2-(4-cyano-6-(7H-pyrrolo[2,3-d]pyrimidin-5-yl)pyridin-2-ylamino)-N-(2,2,2-trifluoroethyl)propanamide] |
| < 500 | < 500 | O=C(CNc1ccnc(-c2c[nH]c3ncncc23)n1)NCC(F)(F)F [Compound 76] |
| < 500 | < 500 | C[C@@H](Nc1ccnc(-c2c[nH]c3ncncc23)n1)C(=O)NCC(F)(F)F [Compound 39, (R)-2-(2-(7H-pyrrolo[2,3-d]pyrimidin-5-yl)pyrimidin-4-ylamino)-N-(2,2,2-trifluoroethyl)propanamide] |

| Ki [1] [nM] | Ki [2] [nM] | Compound |
| --- | --- | --- |
| 500 to 5000 | 500 to 5000 | O=C(NCC(F)(F)F)[C@@H]1CCN1c1cnc(-c2c[nH]c3ncncc23)nc1 [Compound 55] |
| 500 to 5000 | < 500 | CC[C@H](Nc1nc(-c2c[nH]c3ncncc23)ncc1F)C(=O)NCC(F)(F)F [Compound 41, (S)-2-(5-fluoro-2-(7H-pyrrolo[2,3-d]pyrimidin-5-yl)pyrimidin-4-ylamino)-N-(2,2,2-trifluoroethyl)butanamide] |
| < 500 | < 500 | CCC(CC)(Nc1ccnc(-c2c[nH]c3ncncc23)n1)C(=O)NCC(F)(F)F [Compound 90] |
| < 500 | < 500 | O=C(Cn1ccc2cnc(-c3c[nH]c4ncncc34)nc21)NCC(F)(F)F [Compound 109] |
| < 500 | < 500 | O=C(NCC(F)(F)F)[C@H]1C[C@H](O)CN1c1ccnc(-c2c[nH]c3ncncc23)n1 [Compound 94] |
| 500 to 5000 | < 500 | CC(C)[C@](C)(Nc1nc(-c2c[nH]c3ncncc23)ncc1F)C(=O)NCC(F)(F)F [Compound 75] |
| < 500 | < 500 | CC[C@@](C)(Nc1ccnc(-c2c[nH]c3ncncc23)n1)C(=O)NCC(F)(F)F [Compound 80] |
| > 5000 | 500 to 5000 | COC[C@H](Nc1nc(-c2c[nH]c3ncncc23)nc2ccccc12)C(=O)NCC(F)(F)F [Compound 47] |
| > 5000 | > 5000 | C[C@H](Nc1nc(-c2c[nH]c3ncncc23)nc(N2CCCC2)n1)C(=O)NCC(F)(F)F [Compound 33, (S)-2-(4-(pyrrolidin-1-yl)-6-(7H-pyrrolo[2,3-d]pyrimidin-5-yl)-1,3,5-triazin-2-ylamino)-N-(2,2,2-trifluoroethyl)propanamide] |
| 500 to 5000 | 500 to 5000 | CC(C)[C@H](C)NC(=O)c1cc(N[C@@H](C)C(=O)NCC(F)(F)F)nc(-c2c[nH]c3ncncc23)n1 [Compound 16] |
| < 500 | < 500 | CC(C)[C@@](C)(Nc1ccnc(-c2c[nH]c3ncncc23)n1)C(=O)NCC(F)(F)F [Compound 87] |
| 500 to 5000 | < 500 | O=C(NCC(F)(F)F)[C@H](CO)Nc1nc(-c2c[nH]c3ncncc23)ncc1F [Compound 50] |
| 500 to 5000 | 500 to 5000 | C[C@H](Nc1cc(C(=O)N2CCC(O)CC2)nc(-c2c[nH]c3ncncc23)n1)C(=O)NCC(F)(F)F [Compound 13] |
| < 500 | < 500 | C[C@@H](Nc1ccnc(-c2c[nH]c3ncncc23)n1)c1ccc(F)cc1 [Compound 83] |
| < 500 | < 500 | CC(C)[C@H](C(=O)NCC(F)(F)F)N(C)c1nc(-c2c[nH]c3ncncc23)ncc1F [Compound 74] |
| 500 to 5000 | < 500 | CC[C@](C)(Nc1nc(-c2c[nH]c3ncncc23)ncc1F)C(=O)NCC(F)(F)F [Compound 77] |
| > 5000 | > 5000 | C[C@H](Nc1cc(N2CCOCC2)nc(-c2c[nH]c3ncncc23)n1)C(=O)NCC(F)(F)F [Compound 36, (S)-2-(6-morpholino-2-(7H-pyrrolo[2,3-d]pyrimidin-5-yl)pyrimidin-4-ylamino)-N-(2,2,2-trifluoroethyl)propanamide] |
| 500 to 5000 | 500 to 5000 | CC(C)(C)OC(=O)N1CC=C(c2cccc(-c3c[nH]c4ncncc34)n2)CC1 [Compound 28, 6-(7H-Pyrrolo[2,3-d]pyrimidin-5-yl)-3′,6′-dihydro-2′H-[2,4′]bipyridinyl-1′-carboxylic acid tert-butyl ester] |
